#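 Where inhibition never reached the appropriate level, the endpoint shown equals the highest concentration tested. Otherwise, values were interpolated linearly from a five-concentration, 48-hour dose response in 96-well plates. At the GI50, growth is halved. TGI denotes the concentration required for complete inhibition of growth.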
# What was measured:
# Assay in all cases: DTP human tumour cell line panel, 48 h
# NCI-H460 lung = test system: NCI-H460 lung
# A498 renal = test system: A498 renal
# OVCAR-4 ovarian = test system: OVCAR-4 ovarian
# T-47D breast = test system: T-47D breast
# UACC-62 melanoma = test system: UACC-62 melanoma
# NCI/ADR-RES ovarian = test system: NCI/ADR-RES ovarian
# SR leukemia = test system: SR leukemia
# RPMI-8226 leukemia = test system: RPMI-8226 leukemia
# NCI-H522 lung = test system: NCI-H522 lung
# NCI-H23 lung = test system: NCI-H23 lung
# EKVX NSCLC = test system: EKVX NSCLC
# KM12 colon = test system: KM12 colon
# OVCAR-8 ovarian = test system: OVCAR-8 ovarian
# SK-OV-3 ovarian = test system: SK-OV-3 ovarian
# MALME-3M melanoma = test system: MALME-3M melanoma
# U251 CNS = test system: U251 CNS
# MDA-MB-435 = test system: MDA-MB-435
# DU-145 prostate = test system: DU-145 prostate
# BT-549 breast = test system: BT-549 breast
# SK-MEL-2 melanoma = test system: SK-MEL-2 melanoma
# LOX IMVI melanoma = test system: LOX IMVI melanoma
# SN12C renal = test system: SN12C renal
# MOLT-4 leukemia = test system: MOLT-4 leukemia
# SNB-19 CNS = test system: SNB-19 CNS
# HL-60(TB) leukemia = test system: HL-60(TB) leukemia
# HT29 colon = test system: HT29 colon
# COLO 205 colon = test system: COLO 205 colon
# NCI-H226 lung = test system: NCI-H226 lung
# MCF7 breast = test system: MCF7 breast
# SNB-75 CNS = test system: SNB-75 CNS
# MDA-MB-231 breast = test system: MDA-MB-231 breast
# SW-620 colon = test system: SW-620 colon
# HS 578T breast = test system: HS 578T breast
# HOP-62 NSCLC = test system: HOP-62 NSCLC
# HOP-92 NSCLC = test system: HOP-92 NSCLC
# SK-MEL-5 melanoma = test system: SK-MEL-5 melanoma
# CCRF-CEM leukemia = test system: CCRF-CEM leukemia
# SF-539 CNS = test system: SF-539 CNS
# K-562 leukemia = test system: K-562 leukemia
# RXF 393 renal = test system: RXF 393 renal
# IGROV1 ovarian = test system: IGROV1 ovarian
# HCT-15 colon = test system: HCT-15 colon
# SF-268 CNS = test system: SF-268 CNS
# SF-295 CNS = test system: SF-295 CNS
# A549 NSCLC = test system: A549 NSCLC
# 786-0 renal = test system: 786-0 renal
# M14 melanoma = test system: M14 melanoma
# UACC-257 melanoma = test system: UACC-257 melanoma
# ACHN renal = test system: ACHN renal
# HCT-116 colon = test system: HCT-116 colon
# PC-3 prostate = test system: PC-3 prostate
# CAKI-1 renal = test system: CAKI-1 renal
# OVCAR-5 ovarian = test system: OVCAR-5 ovarian
# UO-31 renal = test system: UO-31 renal
# HCC-2998 colon = test system: HCC-2998 colon
# SK-MEL-28 melanoma = test system: SK-MEL-28 melanoma
# TK-10 renal = test system: TK-10 renal
# OVCAR-3 ovarian = test system: OVCAR-3 ovarian
smiles,measurement,setting,value
CCCC(=O)Nc1cc(/C=C/C(=O)N2CC(CCl)c3c2cc(OC(C)=O)c2[nH]cc(C)c32)n(C)c1 (centres undefined),TGI,NCI-H460 lung,0.419 nM
same,TGI,A498 renal,0.667 nM
same,TGI,OVCAR-4 ovarian,21.3 nM
same,TGI,T-47D breast,68.9 nM
same,TGI,UACC-62 melanoma,0.0423 nM
same,TGI,NCI/ADR-RES ovarian,12.1 nM
same,TGI,SR leukemia,> 250 nM
same,TGI,RPMI-8226 leukemia,7.62 nM
same,TGI,NCI-H522 lung,0.0426 nM
same,TGI,NCI-H23 lung,0.0872 nM
same,TGI,EKVX NSCLC,6.65 nM
same,TGI,KM12 colon,2.47 nM
same,TGI,OVCAR-8 ovarian,0.858 nM
same,TGI,SK-OV-3 ovarian,69.1 nM
same,TGI,MALME-3M melanoma,0.0955 nM
same,TGI,U251 CNS,105 nM
same,TGI,MDA-MB-435,0.686 nM
same,TGI,DU-145 prostate,4.53 nM
same,TGI,BT-549 breast,2.27 nM
same,TGI,SK-MEL-2 melanoma,0.121 nM
same,TGI,LOX IMVI melanoma,> 250 nM
same,TGI,SN12C renal,5.19 nM
same,TGI,MOLT-4 leukemia,4.36 nM
same,TGI,SNB-19 CNS,43.6 nM
same,TGI,HL-60(TB) leukemia,1.01 nM
same,TGI,HT29 colon,> 250 nM
same,TGI,COLO 205 colon,0.0432 nM
same,TGI,NCI-H226 lung,0.748 nM
same,TGI,MCF7 breast,> 75.9 nM
same,TGI,SNB-75 CNS,< 0.025 nM
same,TGI,MDA-MB-231 breast,> 250 nM
same,TGI,SW-620 colon,> 250 nM
same,TGI,HS 578T breast,1.93 nM
same,TGI,HOP-62 NSCLC,3.89 nM
same,TGI,HOP-92 NSCLC,0.146 nM
same,TGI,SK-MEL-5 melanoma,0.0584 nM
same,TGI,CCRF-CEM leukemia,0.161 nM
same,TGI,SF-539 CNS,0.107 nM
same,TGI,K-562 leukemia,> 197 nM
same,TGI,RXF 393 renal,< 0.025 nM
same,TGI,IGROV1 ovarian,> 250 nM
same,TGI,HCT-15 colon,> 134 nM
same,TGI,SF-268 CNS,< 0.025 nM
same,TGI,SF-295 CNS,0.311 nM
NCCNc1nc2ccc(F)cc2c2c(=O)c3cc(F)ccc3sc12,GI50,NCI-H460 lung,1850 nM
same,TGI,NCI-H460 lung,3470 nM
same,GI50,A498 renal,1640 nM
same,TGI,A498 renal,6900 nM
same,GI50,OVCAR-4 ovarian,2600 nM
same,TGI,OVCAR-4 ovarian,8010 nM
same,GI50,T-47D breast,1720 nM
same,TGI,T-47D breast,3720 nM
same,GI50,UACC-62 melanoma,1660 nM
same,TGI,UACC-62 melanoma,3060 nM
same,GI50,NCI/ADR-RES ovarian,1700 nM
same,TGI,NCI/ADR-RES ovarian,3330 nM
same,GI50,SR leukemia,1980 nM
same,TGI,SR leukemia,4910 nM
same,GI50,A549 NSCLC,1730 nM
same,TGI,A549 NSCLC,3380 nM
same,GI50,786-0 renal,1590 nM
same,TGI,786-0 renal,2960 nM
same,GI50,M14 melanoma,2770 nM
same,TGI,M14 melanoma,8650 nM
same,GI50,RPMI-8226 leukemia,2180 nM
same,TGI,RPMI-8226 leukemia,5110 nM
same,GI50,NCI-H522 lung,1730 nM
same,TGI,NCI-H522 lung,3380 nM
same,GI50,UACC-257 melanoma,2690 nM
same,TGI,UACC-257 melanoma,7800 nM
same,GI50,NCI-H23 lung,1650 nM
same,TGI,NCI-H23 lung,3180 nM
same,GI50,EKVX NSCLC,1650 nM
same,TGI,EKVX NSCLC,3950 nM
same,GI50,KM12 colon,1810 nM
same,TGI,KM12 colon,3460 nM
same,GI50,OVCAR-8 ovarian,2060 nM
same,TGI,OVCAR-8 ovarian,4600 nM
same,GI50,SK-OV-3 ovarian,5440 nM
same,TGI,SK-OV-3 ovarian,20900 nM
same,GI50,MALME-3M melanoma,1910 nM
same,TGI,MALME-3M melanoma,4280 nM
same,GI50,U251 CNS,1760 nM
same,TGI,U251 CNS,3240 nM
same,GI50,ACHN renal,1500 nM
same,TGI,ACHN renal,2830 nM
same,GI50,HCT-116 colon,1610 nM
same,TGI,HCT-116 colon,2960 nM
same,GI50,MDA-MB-435,1770 nM
same,TGI,MDA-MB-435,3290 nM
same,GI50,PC-3 prostate,1480 nM
same,TGI,PC-3 prostate,2850 nM
same,GI50,CAKI-1 renal,1080 nM
same,TGI,CAKI-1 renal,2780 nM
same,GI50,OVCAR-5 ovarian,1770 nM
same,TGI,OVCAR-5 ovarian,3670 nM
same,GI50,DU-145 prostate,1900 nM
same,TGI,DU-145 prostate,3390 nM
same,GI50,UO-31 renal,1340 nM
same,TGI,UO-31 renal,11300 nM
same,GI50,BT-549 breast,9720 nM
same,TGI,BT-549 breast,24100 nM
same,GI50,SK-MEL-2 melanoma,1950 nM
same,TGI,SK-MEL-2 melanoma,4280 nM
same,GI50,LOX IMVI melanoma,1720 nM
same,TGI,LOX IMVI melanoma,3130 nM
same,GI50,SN12C renal,1680 nM
same,TGI,SN12C renal,3290 nM
same,GI50,MOLT-4 leukemia,1940 nM
same,TGI,MOLT-4 leukemia,3920 nM
same,GI50,SNB-19 CNS,1940 nM
same,TGI,SNB-19 CNS,4210 nM
same,GI50,HCC-2998 colon,1770 nM
same,TGI,HCC-2998 colon,3440 nM
same,GI50,HL-60(TB) leukemia,2280 nM
same,TGI,HL-60(TB) leukemia,5210 nM
same,GI50,SK-MEL-28 melanoma,2050 nM
same,TGI,SK-MEL-28 melanoma,4180 nM
same,GI50,HT29 colon,1610 nM
same,TGI,HT29 colon,3060 nM
same,GI50,TK-10 renal,2070 nM
same,TGI,TK-10 renal,3570 nM
same,GI50,SNB-75 CNS,138 nM
same,TGI,SNB-75 CNS,5020 nM
same,GI50,MDA-MB-231 breast,1510 nM
same,TGI,MDA-MB-231 breast,3080 nM
same,GI50,SW-620 colon,1560 nM
same,TGI,SW-620 colon,3090 nM
same,GI50,HS 578T breast,3210 nM
same,TGI,HS 578T breast,18400 nM
same,GI50,HOP-62 NSCLC,1390 nM
same,TGI,HOP-62 NSCLC,2870 nM
same,GI50,HOP-92 NSCLC,1020 nM
same,TGI,HOP-92 NSCLC,4600 nM
same,GI50,SK-MEL-5 melanoma,1680 nM
same,TGI,SK-MEL-5 melanoma,3250 nM
same,GI50,CCRF-CEM leukemia,2110 nM
same,TGI,CCRF-CEM leukemia,4540 nM
same,GI50,SF-539 CNS,1760 nM
same,TGI,SF-539 CNS,3250 nM
same,GI50,K-562 leukemia,2140 nM
same,TGI,K-562 leukemia,5410 nM
same,GI50,RXF 393 renal,2330 nM
same,TGI,RXF 393 renal,7320 nM
same,GI50,IGROV1 ovarian,1040 nM
same,TGI,IGROV1 ovarian,2370 nM
same,GI50,HCT-15 colon,1780 nM
same,TGI,HCT-15 colon,3370 nM
same,GI50,SF-268 CNS,1620 nM
same,TGI,SF-268 CNS,4470 nM
same,GI50,OVCAR-3 ovarian,1630 nM
same,TGI,OVCAR-3 ovarian,3150 nM
same,GI50,SF-295 CNS,1880 nM
same,TGI,SF-295 CNS,3590 nM

# Reference: PubChem BioAssay (NCI)
